Counter-ions that a name gives are not always drawn.
What was measured:
JAK-1 = JAK-1 (Homo sapiens, UniProt P23458); conditions: cited from earlier work
JAK-2 = JAK-2 (Homo sapiens, UniProt O60674); conditions: cited from earlier work
JAK-3 = JAK-3 (Homo sapiens, UniProt P52333); conditions: cited from earlier work
SYK = SYK (Homo sapiens, UniProt P43405); conditions: cited from earlier work
EGFR kinase = EGFR kinase (Homo sapiens, UniProt P00533); conditions: cited from earlier work
IR kinase = IR kinase (Homo sapiens, UniProt P06213); conditions: cited from earlier work
Hck = Hck (Homo sapiens, UniProt P08631); conditions: cited from earlier work
HDAC = conditions: cited from earlier work
[1] = test system: lymphoma cell lines (2-5 cell lines); test: Synergy of compound (1-1) with other agents, MTT, Chou-Talalay combination index; assay type: cell-based; conditions: 72 h; for combination effect with compound (1-1): Chou-Talalay; for Chou-Talalay combination index (CI), median / Chou-Talalay combination index (CI), range: in combination with compound (1-1)
FKBP12 = FKBP12 (Homo sapiens, UniProt P62942); conditions: cited from earlier work
PI3K/mTOR = conditions: cited from earlier work
[2] = test system: Akt phosphorylation on T308; conditions: cited from earlier work
[3] = test system: Akt phosphorylation on S473; conditions: cited from earlier work
PDGFR = conditions: cited from earlier work
[4] = test system: pAktS473, pGSK3βS9, pS6, pMAPK, pAktT308; conditions: cited from earlier work
PI3Kβ (p110β) = PI3Kβ (p110β) (Homo sapiens, UniProt P42338); conditions: cited from earlier work
PI3Kγ (p110γ) = PI3Kγ (p110γ) (Homo sapiens, UniProt P48736); conditions: cited from earlier work
Chain of PI3Kγ (p110γ) (P48736 whole entry, species assumed): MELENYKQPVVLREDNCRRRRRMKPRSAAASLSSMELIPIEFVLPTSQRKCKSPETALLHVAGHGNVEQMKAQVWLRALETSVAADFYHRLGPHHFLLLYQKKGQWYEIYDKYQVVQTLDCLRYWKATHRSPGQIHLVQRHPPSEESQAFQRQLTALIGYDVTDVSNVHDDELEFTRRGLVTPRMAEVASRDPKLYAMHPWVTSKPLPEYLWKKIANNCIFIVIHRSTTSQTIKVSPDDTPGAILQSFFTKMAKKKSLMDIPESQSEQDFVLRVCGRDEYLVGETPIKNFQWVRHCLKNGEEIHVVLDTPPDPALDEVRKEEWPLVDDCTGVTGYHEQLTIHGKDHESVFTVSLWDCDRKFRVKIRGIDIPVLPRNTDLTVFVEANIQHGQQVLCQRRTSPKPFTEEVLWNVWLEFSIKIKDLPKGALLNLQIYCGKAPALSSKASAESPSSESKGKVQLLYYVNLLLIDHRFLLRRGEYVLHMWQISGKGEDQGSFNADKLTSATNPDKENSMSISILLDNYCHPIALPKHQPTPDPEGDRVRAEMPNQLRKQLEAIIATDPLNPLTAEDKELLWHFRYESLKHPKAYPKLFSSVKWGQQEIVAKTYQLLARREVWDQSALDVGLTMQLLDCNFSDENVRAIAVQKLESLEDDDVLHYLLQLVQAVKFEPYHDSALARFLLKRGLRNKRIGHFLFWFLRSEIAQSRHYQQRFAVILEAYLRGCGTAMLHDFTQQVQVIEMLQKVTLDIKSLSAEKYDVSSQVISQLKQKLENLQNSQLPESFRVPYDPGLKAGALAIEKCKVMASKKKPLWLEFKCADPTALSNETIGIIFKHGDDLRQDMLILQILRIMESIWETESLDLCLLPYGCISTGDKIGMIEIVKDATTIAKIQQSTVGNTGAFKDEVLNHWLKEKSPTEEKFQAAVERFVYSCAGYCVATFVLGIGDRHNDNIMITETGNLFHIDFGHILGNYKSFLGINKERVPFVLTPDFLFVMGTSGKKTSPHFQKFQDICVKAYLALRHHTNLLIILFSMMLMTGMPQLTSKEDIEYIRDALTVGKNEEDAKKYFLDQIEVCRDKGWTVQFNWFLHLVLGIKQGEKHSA

Chain of JAK-1 (P23458 whole entry): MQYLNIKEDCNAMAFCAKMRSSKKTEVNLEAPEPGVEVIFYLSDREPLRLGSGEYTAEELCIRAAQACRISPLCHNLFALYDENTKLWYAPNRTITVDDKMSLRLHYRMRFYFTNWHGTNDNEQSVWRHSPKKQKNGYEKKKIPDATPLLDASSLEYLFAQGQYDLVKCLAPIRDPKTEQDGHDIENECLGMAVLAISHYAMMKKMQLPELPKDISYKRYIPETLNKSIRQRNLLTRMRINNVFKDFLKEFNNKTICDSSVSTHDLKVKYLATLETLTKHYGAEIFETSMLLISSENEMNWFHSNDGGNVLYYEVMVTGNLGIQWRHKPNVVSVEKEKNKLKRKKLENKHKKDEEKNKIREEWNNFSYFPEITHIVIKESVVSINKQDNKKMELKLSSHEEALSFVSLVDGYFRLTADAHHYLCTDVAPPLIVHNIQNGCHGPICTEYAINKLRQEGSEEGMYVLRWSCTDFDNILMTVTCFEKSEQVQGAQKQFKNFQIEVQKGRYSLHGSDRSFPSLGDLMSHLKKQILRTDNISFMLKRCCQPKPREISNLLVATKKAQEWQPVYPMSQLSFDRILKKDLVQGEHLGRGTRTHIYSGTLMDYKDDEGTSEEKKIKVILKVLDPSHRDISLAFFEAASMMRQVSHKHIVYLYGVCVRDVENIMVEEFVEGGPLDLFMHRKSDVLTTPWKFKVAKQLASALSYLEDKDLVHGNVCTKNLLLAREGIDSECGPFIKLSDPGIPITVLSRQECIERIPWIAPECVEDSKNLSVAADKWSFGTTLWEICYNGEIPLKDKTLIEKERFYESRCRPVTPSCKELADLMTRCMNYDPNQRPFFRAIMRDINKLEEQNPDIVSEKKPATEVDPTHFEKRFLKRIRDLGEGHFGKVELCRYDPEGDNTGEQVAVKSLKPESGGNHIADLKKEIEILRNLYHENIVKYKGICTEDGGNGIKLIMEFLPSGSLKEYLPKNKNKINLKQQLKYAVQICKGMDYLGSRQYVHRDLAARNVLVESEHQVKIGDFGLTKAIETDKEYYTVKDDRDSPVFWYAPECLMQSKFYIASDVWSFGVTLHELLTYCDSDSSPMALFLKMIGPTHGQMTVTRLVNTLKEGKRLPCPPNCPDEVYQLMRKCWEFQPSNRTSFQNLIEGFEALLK
Chain of JAK-3 (P52333 whole entry, species assumed): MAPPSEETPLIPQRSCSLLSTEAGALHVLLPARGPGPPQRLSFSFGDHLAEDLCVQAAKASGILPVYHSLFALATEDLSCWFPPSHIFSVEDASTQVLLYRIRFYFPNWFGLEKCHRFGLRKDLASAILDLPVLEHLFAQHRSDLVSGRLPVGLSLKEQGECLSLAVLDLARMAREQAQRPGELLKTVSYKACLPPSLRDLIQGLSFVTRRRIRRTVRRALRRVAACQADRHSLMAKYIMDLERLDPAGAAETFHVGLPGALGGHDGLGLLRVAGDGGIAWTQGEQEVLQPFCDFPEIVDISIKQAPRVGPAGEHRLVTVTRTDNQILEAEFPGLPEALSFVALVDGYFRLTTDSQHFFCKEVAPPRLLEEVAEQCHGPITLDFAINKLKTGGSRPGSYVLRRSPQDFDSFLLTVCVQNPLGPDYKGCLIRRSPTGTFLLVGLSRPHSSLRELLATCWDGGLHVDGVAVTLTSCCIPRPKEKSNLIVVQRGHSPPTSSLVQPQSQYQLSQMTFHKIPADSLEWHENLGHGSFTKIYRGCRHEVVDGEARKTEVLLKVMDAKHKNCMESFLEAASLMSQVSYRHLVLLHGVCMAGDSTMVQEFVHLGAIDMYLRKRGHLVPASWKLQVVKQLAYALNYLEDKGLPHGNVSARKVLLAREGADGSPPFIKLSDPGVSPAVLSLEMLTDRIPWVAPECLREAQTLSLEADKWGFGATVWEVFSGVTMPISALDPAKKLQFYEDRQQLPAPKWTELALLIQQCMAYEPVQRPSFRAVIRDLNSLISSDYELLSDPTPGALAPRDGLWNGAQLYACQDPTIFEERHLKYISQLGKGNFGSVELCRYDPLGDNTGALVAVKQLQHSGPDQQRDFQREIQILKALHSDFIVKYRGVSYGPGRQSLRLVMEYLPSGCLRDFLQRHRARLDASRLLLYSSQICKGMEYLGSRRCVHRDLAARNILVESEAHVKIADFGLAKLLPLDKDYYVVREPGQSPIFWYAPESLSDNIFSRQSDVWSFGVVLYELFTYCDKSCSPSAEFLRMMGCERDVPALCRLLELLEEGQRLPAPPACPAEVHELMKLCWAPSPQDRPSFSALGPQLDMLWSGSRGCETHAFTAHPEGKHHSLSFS
Chain of EGFR kinase (P00533 25-1210): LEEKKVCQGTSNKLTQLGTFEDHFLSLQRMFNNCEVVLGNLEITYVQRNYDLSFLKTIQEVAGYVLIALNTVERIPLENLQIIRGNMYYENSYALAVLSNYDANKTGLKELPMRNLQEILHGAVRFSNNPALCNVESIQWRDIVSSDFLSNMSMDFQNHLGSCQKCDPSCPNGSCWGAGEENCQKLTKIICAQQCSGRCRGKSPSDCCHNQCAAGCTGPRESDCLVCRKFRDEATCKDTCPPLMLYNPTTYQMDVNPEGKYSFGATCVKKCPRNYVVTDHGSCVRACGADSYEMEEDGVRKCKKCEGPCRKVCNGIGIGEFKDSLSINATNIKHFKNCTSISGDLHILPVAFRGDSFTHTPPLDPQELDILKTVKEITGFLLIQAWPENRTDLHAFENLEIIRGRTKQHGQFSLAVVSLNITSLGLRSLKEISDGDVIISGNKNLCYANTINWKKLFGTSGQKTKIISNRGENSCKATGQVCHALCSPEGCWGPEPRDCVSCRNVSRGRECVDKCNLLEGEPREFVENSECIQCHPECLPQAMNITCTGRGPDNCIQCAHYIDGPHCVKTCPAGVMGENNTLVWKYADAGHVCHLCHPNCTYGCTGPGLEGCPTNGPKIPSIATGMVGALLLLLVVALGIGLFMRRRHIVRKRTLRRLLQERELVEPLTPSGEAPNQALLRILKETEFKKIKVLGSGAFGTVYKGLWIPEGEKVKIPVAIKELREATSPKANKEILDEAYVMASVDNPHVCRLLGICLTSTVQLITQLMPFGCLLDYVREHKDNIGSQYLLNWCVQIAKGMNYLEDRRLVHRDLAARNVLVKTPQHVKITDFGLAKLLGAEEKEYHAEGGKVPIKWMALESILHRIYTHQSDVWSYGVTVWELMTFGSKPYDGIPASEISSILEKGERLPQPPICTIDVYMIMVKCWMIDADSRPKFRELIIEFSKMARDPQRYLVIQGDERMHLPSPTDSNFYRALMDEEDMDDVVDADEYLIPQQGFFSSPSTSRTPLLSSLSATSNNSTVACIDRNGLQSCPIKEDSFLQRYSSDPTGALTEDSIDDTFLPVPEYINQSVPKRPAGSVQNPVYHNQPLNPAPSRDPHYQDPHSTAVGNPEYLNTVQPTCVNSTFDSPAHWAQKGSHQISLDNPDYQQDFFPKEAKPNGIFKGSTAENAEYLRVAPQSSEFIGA
Chain of Hck (P08631 whole entry, species assumed): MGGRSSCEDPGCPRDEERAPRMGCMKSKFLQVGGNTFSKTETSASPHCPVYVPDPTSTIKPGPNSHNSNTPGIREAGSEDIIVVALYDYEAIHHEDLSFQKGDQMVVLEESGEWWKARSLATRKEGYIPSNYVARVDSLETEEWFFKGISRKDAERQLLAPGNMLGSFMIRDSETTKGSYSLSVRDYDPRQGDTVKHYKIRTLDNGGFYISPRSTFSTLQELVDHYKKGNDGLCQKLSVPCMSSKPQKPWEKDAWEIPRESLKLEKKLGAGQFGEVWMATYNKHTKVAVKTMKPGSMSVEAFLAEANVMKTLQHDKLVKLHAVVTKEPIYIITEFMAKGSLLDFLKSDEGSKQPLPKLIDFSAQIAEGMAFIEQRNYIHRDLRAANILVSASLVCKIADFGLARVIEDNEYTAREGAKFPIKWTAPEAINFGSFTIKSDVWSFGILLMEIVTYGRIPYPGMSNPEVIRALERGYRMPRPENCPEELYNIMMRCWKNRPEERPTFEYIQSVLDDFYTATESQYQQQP

## C/C(O)=C(\C#N)C(=O)Nc1cc(Br)ccc1Br
JAK-1
  IC50: > 300000 nM
JAK-2
  IC50: > 300000 nM
JAK-3
  IC50: > 300000 nM
SYK
  IC50: > 300000 nM
EGFR kinase
  IC50: > 300000 nM
IR kinase
  IC50: > 300000 nM
Hck
  IC50: > 300000 nM

## CC(C)[C@H](C(=O)Nc1ccc(C(=O)NO)cc1)c1ccccc1 [AR-42]
HDAC
  IC50: 30 nM

## CN(C)c1ccc(C(=O)NCCCCCCC(=O)NO)cc1 [Compound M344]
HDAC
  IC50: 100 nM

## CO[C@H]1C[C@@H]2CC[C@@H](C)[C@@](O)(O2)C(=O)C(=O)N2CCCC[C@H]2C(=O)O[C@H]([C@H](C)C[C@@H]2CC[C@@H](OCCO)[C@H](OC)C2)CC(=O)[C@H](C)/C=C(\C)[C@@H](O)[C@@H](OC)C(=O)[C@H](C)C[C@H](C)/C=C/C=C/C=C/1C [Everolimus]
[1]
  combination effect with compound (1-1): Synergy
  Chou-Talalay combination index (CI), median: 0.1
  Chou-Talalay combination index (CI), range: 0.1-0.2
FKBP12
  IC50: 1.6 to 2.4 nM

## CCN(CC)Cc1ccc2cc(COC(=O)Nc3ccc(C(=O)NO)cc3)ccc2c1 [ITF2357]
HDAC
  IC50: 7.5 to 16 nM

## O=C(/C=C/c1ccc(CN(CCO)CCc2c[nH]c3ccccc23)cc1)NO [LAQ824]
HDAC
  IC50: 32 nM

## Cn1c(/C=C/C(=O)NO)ccc1/C=C/C(=O)c1cccc(F)c1 [MC1568]
HDAC
  IC50: 200 nM

## COc1ccc(-c2ccc3ncc4c(c3c2)n(-c2ccc(N3CCNCC3)c(C(F)(F)F)c2)c(=O)n4C)cn1 [NVP-BGT226]
PI3K/mTOR
  IC50: 1 nM

## COc1ccc(-c2cc3c(C)nc(N)nc3n([C@H]3CC[C@H](OCCO)CC3)c2=O)cn1 [PF-04691502]
[2]
  IC50: 7.5 nM
[3]
  IC50: 3.8 nM

## Nc1ncnc2c1c(-c1cnc3[nH]ccc3c1)nn2C1CCCC1 [PP-121, 1-Cyclopentyl-3-(1H-pyrrolo[2,3-b]p-yridin-5-yl)-1H-pyrazolo[3,4-d]pyrimidin-4-amine]
PDGFR
  IC50: 2 nM

## COc1ccc(COc2cc3oc(=O)c4cc(C(C)O)ccc4c3cc2OC)cc1 (centres unmarked) [Palomid 529]
[4]
  effect on phosphorylation of pAktS473, pGSK3βS9, pS6, pMAPK, pAktT308: both the mTORCl and mTORC2 complexes, reduces phosphorylation of pAktS473, pGSK3βS9, and pS6 but neither pMAPK nor pAktT308. Phase 1.

## CCCCc1nc2cc(/C=C/C(=O)NO)ccc2n1CCN(CC)CC [SB939]
HDAC
  IC50: 40 to 140 nM

## CCCC(CCC)C(=O)O [Valproic acid sodium salt]
HDAC
  IC50: 400000 nM

## O=C(CCCCCCC(=O)Nc1ccccc1)NO [Vorinostat, suberoylanilide hydroxamic acid]
[1]
  combination effect with compound (1-1): Synergy
  Chou-Talalay combination index (CI), median: 0.5
  Chou-Talalay combination index (CI), range: 0.3-0.6

## CC1=C(/C=C/C(C)=C/C=C/C(C)=C/C(=O)O)C(C)(C)CCC1 [all-trans retinoic acid]
[1]
  combination effect with compound (1-1): Synergy

## Cn1c(CCCC(=O)O)nc2cc(N(CCCl)CCCl)ccc21 [bendamustine, 4-[5-[Bis(2-chloroethyl)amino]-1-methylbenzimidazol-2-yl]butanoic acid]
[1]
  combination effect with compound (1-1): Additive effects

## COc1cccc2c1C(=O)c1c(O)c3c(c(O)c1C2=O)C[C@@](O)(C(=O)CO)C[C@@H]3O[C@H]1C[C@H](N)[C@H](O)[C@H](C)O1 [doxorubicin, (7S,9S)-7-[(2R,4S,5S,6S)-4-amino-5-hydroxy-6-methyloxan-2-yl]oxy-6,9,11-trihydroxy-9-(2-hydroxyacetyl)-4-methoxy-8,10-dihydro-7H-tetracene-5,12-dione]
[1]
  combination effect with compound (1-1): Additive effects
  Chou-Talalay combination index (CI), median: 0.83
  Chou-Talalay combination index (CI), range: 0.7-0.96

## C=CC(=O)N1CCC[C@@H](n2nc(-c3ccc(Oc4ccccc4)cc3)c3c(N)ncnc32)C1 [ibrutinib]
[1]
  combination effect with compound (1-1): Synergy
[1]; in ABC-DLBCL
  Chou-Talalay combination index (CI), median: 0.04
  Chou-Talalay combination index (CI), range: 0.02-0.1

## CC[C@H](Nc1ncnc2[nH]cnc12)c1nc2cccc(F)c2c(=O)n1-c1ccccc1 [idelalisib]
[1]
  combination effect with compound (1-1): Synergy
  Chou-Talalay combination index (CI), median: 0.5
  Chou-Talalay combination index (CI), range: 0.04-2.4

## Nc1cccc2c1CN(C1CCC(=O)NC1=O)C2=O (centres unmarked) [lenalidomide]
[1]
  combination effect with compound (1-1): Synergy
  Chou-Talalay combination index (CI), median: 0.7

## GSK2126458
PI3Kβ (p110β)
  Ki: 0.13 nM
PI3Kγ (p110γ)
  Ki: 0.024 nM

## rituximab: agent combined with compound (1-1) in the synergy test
[1]
  combination effect with compound (1-1): Synergy
  Chou-Talalay combination index (CI), median: 0.5
  Chou-Talalay combination index (CI), range: 0.4-0.5

— patent US9968620B2, “Methods of treating lymphoma using thienotriazolodiazepine compounds” (ONCOETHIX GmbH, priority 2014, dated 2018)
